Among the data in patent US20240335431A1, “1-H-PYRROLO[2,3-c]PYRIDINE COMPOUNDS” (Acerta Pharma B.V., priority 2023, published 2024) are IC50 and Ki values, retold here.

Like-named read-outs stand apart in the source and are kept apart here.

For one assay, the system named is MV4;11 cells. The assay can be described thus: Proliferation assay, MV4;11 (CellTiter-Glo, 7 days). The following applies: read-out: MV-4-11 IC50. Format: cell-based, human. The procedure, abridged: (§1)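 Cells seeded at 125 (MOLM-13), 300 (MV4;11), 75 (OCI-AML3) or 200 (HEL) per well were exposed to 3.16-fold compound dilutions (0.1% DMSO) for 7 days at 37° C. Viability by CellTiter-Glo luminescence, normalized to DMSO (100%) and day-0 plate (0%); IC50 from one-site dose-response fit.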

The target of another assay is muscarinic M2 receptor (Homo sapiens (Human), UniProt P08172). Nature of the assay: Muscarinic M2 receptor binding assay (assay 1). To be noted: [3H]AF-DX 384 2 nM, Cheng Prusoff. The procedure:
Cell membrane homogenates (60 μg protein) were incubated for 60 minutes at 22° C. with 2 nM [3H]AF-DX 384 in the absence or presence of the test compound in a buffer containing 50 mM Tris-HCl (pH 7.4), 120 mM NaCl, 5 mM KCl, 5 mM MgCl2, and 1 mM EDTA. Nonspecific binding was determined in the presence of 1 μM atropine. Following incubation, the samples were filtered rapidly under vacuum through glass fiber filters (GF/B, Packard) presoaked with 0.3% PEI and rinsed several times with ice-cold 50 mM Tris-HCl using a 96-sample cell harvester (Unifilter, Packard). The filters were dried then counted for radioactivity in a scintillation counter (Topcount, Packard) using a scintillation cocktail (Microscint 0, Packard). The results were expressed as a percent inhibition of the control radioligand specific binding, from which the Ki was calculated. Data were analyzed using software developed at Cerep (Hill software) and validated by comparison with data generated by the commercial software SigmaPlot®4.0 for Windows® (© 1997 by SPSS Inc.). The inhibition constant, Ki, was calculated using the Cheng Prusoff equation:
where L=concentration of ligand in the assay, and Kd=affinity of the ligand for the receptor. The standard reference compound was methoctramine, which was tested in each experiment at several concentrations to obtain a competition curve from which its IC50 was calculated.

In a further assay the test system is MOLM-13 cells. Nature of the assay: Proliferation assay, MOLM-13 (CellTiter-Glo, 7 days). The assay is classed as cell-based, human. Summed up: as §1
On the technique in general: In ATP-based viability assays light output follows the ATP content of the culture.

In another assay the test system is OCI-AML3 cells. The assay can be described thus: Proliferation assay, OCI-AML3 (CellTiter-Glo, 7 days). The assay is classed as cell-based, human. Summed up:
as §1

Sequence of muscarinic M2 receptor (P08172 whole entry): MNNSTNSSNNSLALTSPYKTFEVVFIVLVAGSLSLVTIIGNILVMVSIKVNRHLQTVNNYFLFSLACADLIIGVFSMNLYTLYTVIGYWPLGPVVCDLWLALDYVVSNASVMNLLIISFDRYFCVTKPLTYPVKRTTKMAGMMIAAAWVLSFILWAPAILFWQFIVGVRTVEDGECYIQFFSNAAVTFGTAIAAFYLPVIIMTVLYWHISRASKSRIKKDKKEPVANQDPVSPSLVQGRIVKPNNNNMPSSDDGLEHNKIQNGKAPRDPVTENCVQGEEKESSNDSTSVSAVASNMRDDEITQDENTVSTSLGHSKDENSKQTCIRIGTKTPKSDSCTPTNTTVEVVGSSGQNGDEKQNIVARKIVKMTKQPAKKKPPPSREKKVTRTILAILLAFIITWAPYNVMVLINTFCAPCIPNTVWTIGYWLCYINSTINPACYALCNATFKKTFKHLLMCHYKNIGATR

`COCCN(C)CCC[C@H](C(C)C)N1CCC(C(=O)c2cn(-c3ccc(F)cc3C(=O)N(C(C)C)C(C)C)c3cnccc23)CC1` (racemic) [Example 23, rac-(R)-5-Fluoro-N,N-diisopropyl-2-(3-(1-(6-((2-methoxyethyl)(methyl)amino)-2-methylhexan-3-yl)piperidine-4-carbonyl)-1H-pyrrolo[2,3-c]pyridin-1-yl)benzamide]: the IC50 was determined as 20 nM in the assay on MV4;11 cells (Homo sapiens, MV4-11, 168 h) and 37 nM in the assay with MOLM-13 cells (Homo sapiens, MOLM-13, 168 h). The same compound displayed an inhibition constant (Ki) at muscarinic M2 receptor of 100 nM.
For `CCN(C(=O)c1cc(F)ccc1-n1c(C)c(C(=O)C2CCN(C(=O)[C@H]3NC[C@@H]4C[C@@H]43)CC2)c2ccncc21)C(C)C` (single isomer, unassigned) [Example 48-1], in the assay with MOLM-13 cells, the 50% inhibitory concentration (IC50) amounted to 1250 nM.
On the same count and under the same terms, the result for `Cc1c(C(=O)C2CCN(C(=O)[C@H]3NC[C@@H]4C[C@@H]43)CC2)c2ccncc2n1-c1ccc(F)cc1C(=O)N(CC(F)(F)F)C(C)C` (single isomer, unassigned) [Example 51-1] reads 1610 nM.
As for `CCN(C(=O)c1cc(F)ccc1-n1c(C)c(C(=O)[C@@H]2CCN(C(=O)[C@@H]3CCC4(CC4)N3)[C@@H](C)C2)c2ccncc21)C(C)C` (single isomer, unassigned) [Example 52-1, N-Ethyl-5-fluoro-N-isopropyl-2-(2-methyl-3-((2R*,4S*)-2-methyl-1-((S)-4-azaspiro[2.4]heptane-5-carbonyl)piperidine-4-carbonyl)-1H-pyrrolo[2,3-c]pyridin-1-yl)benzamide], the IC50 in the assay with OCI-AML3 cells is 40 nM; with MV4;11 cells, 22 nM.
`CCN(C(=O)c1cc(F)ccc1-n1c(C)c(C(=O)[C@@H]2CCN(C(=O)[C@@H]3CCC4(CC4)N3)[C@@H](C)C2)c2ccncc21)C(C)C` (single isomer, unassigned) [Example 52-2, N-Ethyl-5-fluoro-N-isopropyl-2-(2-methyl-3-((2R*,4S*)-2-methyl-1-((S)-4-azaspiro[2.4]heptane-5-carbonyl)piperidine-4-carbonyl)-1H-pyrrolo[2,3-c]pyridin-1-yl)benzamide]: the IC50 with OCI-AML3 cells came out at 82 nM; with MV4;11 cells it was 56 nM; with MOLM-13 cells it was 48 nM.
As to `Cc1c(C(=O)C2CCN(C(=O)[C@H]3NC[C@@H]4C[C@@H]43)CC2)c2ccncc2n1-c1ccc(F)cc1C(=O)N(C(C)C)C(C)C` (single isomer, unassigned) [Example 55-1], the IC50 in the assay with MV4;11 cells worked out at 1720 nM; in the assay on MOLM-13 cells, 1260 nM. The same compound returned a Ki at muscarinic M2 receptor of 3800 nM.
As to `Cc1c(C(=O)C2CCN(C(=O)[C@@H]3CCC(C)(C)N3)CC2)c2ccncc2n1-c1ccc(F)cc1C(=O)N(C(C)C)C(C)C` (single isomer, unassigned) [Example 56-1], the Ki on muscarinic M2 receptor is 7400 nM. In the assay on MOLM-13 cells, this compound gave an IC50 of 1930 nM.
In the assay on MOLM-13 cells (Homo sapiens, MOLM-13, 168 h), `Cc1c(C(=O)[C@@H]2CCN(C(=O)[C@@H]3CC[C@H](C)N3)[C@@H](C)C2)c2ccncc2n1-c1ccc(F)cc1C(=O)N(C(C)C)C(C)C` (stereo in doubt) [Example 62, 5-Fluoro-N,N-diisopropyl-2-(2-methyl-3-((2S,4RS)-2-methyl-1-((2S,5S)-5-methylpyrrolidine-2-carbonyl)piperidine-4-carbonyl)-1H-pyrrolo[2,3-c]pyridin-1-yl)benzamide] returned an IC50 of 52 nM.
In the assay with MOLM-13 cells (Homo sapiens, MOLM-13, 168 h), `CCN(C(=O)c1cc(F)ccc1-n1c(C)c(C(=O)[C@@H]2CCN(C(=O)[C@@H]3CC[C@H](C)N3)[C@@H](C)C2)c2ccncc21)C(C)C` (stereo in doubt) [Example 63, N-Ethyl-5-fluoro-N-isopropyl-2-(2-methyl-3-((2S,4RS)-2-methyl-1-((2S,5S)-5-methylpyrrolidine-2-carbonyl)piperidine-4-carbonyl)-1H-pyrrolo[2,3-c]pyridine-1-yl)benzamide] registered an IC50 of 47 nM.
Take `Cc1c(C(=O)[C@@H]2CCN(C(=O)[C@@H]3CC[C@@H](C)N3)[C@@H](C)C2)c2ccncc2n1-c1ccc(F)cc1C(=O)N(C(C)C)C(C)C` (stereo in doubt) [Example 64, 5-Fluoro-N,N-diisopropyl-2-(2-methyl-3-((2S,4RS)-2-methyl-1-((2S,5R)-5-methylpyrrolidine-2-carbonyl)piperidine-4-carbonyl)-1H-pyrrolo[2,3-c]pyridin-1-yl)benzamide]: the IC50 turned out to be 313 nM with OCI-AML3 cells (Homo sapiens, OCI-AML-3, 168 h) and 53 nM in the assay on MOLM-13 cells (Homo sapiens, MOLM-13, 168 h).
Consider `CCN(C(=O)c1cc(F)ccc1-n1c(C)c(C(=O)[C@@H]2CCN(C(=O)[C@@H]3CC[C@@H](C)N3)[C@@H](C)C2)c2ccncc21)C(C)C` (stereo in doubt) [Example 65, N-Ethyl-5-fluoro-N-isopropyl-2-(2-methyl-3-((2S,4RS)-2-methyl-1-((2S,5R)-5-methylpyrrolidine-2-carbonyl)piperidine-4-carbonyl)-1H-pyrrolo[2,3-c]pyridin-1-yl)benzamide], for which the IC50 in the assay on OCI-AML3 cells (Homo sapiens, OCI-AML-3, 168 h) was 126 nM; with MOLM-13 cells (Homo sapiens, MOLM-13, 168 h), 56 nM.
With `CC(C)N(C(=O)c1cc(F)ccc1-n1cc(C(=O)C2CN(C(=O)[C@H]3NC4CCC3CC4)C2)c2ccncc21)C(C)C` [Example 6, (S)-2-(3-(1-(2-Azabicyclo[2.2.2]octane-3-carbonyl)azetidine-3-carbonyl)-1H-pyrrolo[2,3-c]pyridin-1-yl)-5-fluoro-N,N-diisopropylbenzamide], the IC50 in the assay on MV4;11 cells (Homo sapiens, MV4-11, 168 h) stood at 46 nM; in the assay on MOLM-13 cells (Homo sapiens, MOLM-13, 168 h) it was 73 nM. The Ki at muscarinic M2 receptor was found to be 2300 nM.
Take `CC(C)c1ncsc1-c1cc(F)ccc1-n1cc(C(=O)C2CN(C(=O)[C@H]3N[C@@H]4CC[C@H]3C4)C2)c2ccncc21.O=CO` [Example 12, (1-((1R,3S,4S)-2-Azabicyclo[2.2.1]heptane-3-carbonyl)azetidin-3-yl)(1-(4-fluoro-2-(4-isopropylthiazol-5-yl)phenyl)-1H-pyrrolo[2,3-c]pyridin-3-yl)methanone 1·formic acid]: on muscarinic M2 receptor, affinity was put at a Ki of 6900 nM. Moreover, half-maximal inhibition with MOLM-13 cells (Homo sapiens, MOLM-13, 168 h) (IC50) was put at 102 nM.
As to `C=C1C[C@@H]2CC[C@H]1[C@@H](C(=O)N1CCC(C(=O)c3cn(-c4ccc(F)cc4C(=O)N(C(C)C)C(C)C)c4cnccc34)CC1)N2` [Example 18, 5-Fluoro-N,N-diisopropyl-2-(3-(1-((1S,3S,4R)-5-methylene-2-azabicyclo[2.2.2]-octane-3-carbonyl)piperidine-4-carbonyl)-1H-pyrrolo[2,3-c]pyridin-1-yl)benzamide], the 50% inhibitory concentration (IC50) in the assay on MV4;11 cells (Homo sapiens, MV4-11, 168 h) was 44 nM; in the assay with MOLM-13 cells (Homo sapiens, MOLM-13, 168 h), 57 nM. In addition, on muscarinic M2 receptor, the inhibition constant Ki was determined as 1000 nM.
The matching figures for `CC(C)N(C(=O)c1cc(F)ccc1-n1cc(C(=O)C2CCN(C(=O)[C@H]3NC[C@@H]4CCC[C@@H]43)CC2)c2ccncc21)C(C)C` [Example 21, 5-Fluoro-N,N-diisopropyl-2-(3-(1-((1S,3αR,6αS)-octahydrocyclopenta[c]pyrrole-1-carbonyl)piperidine-4-carbonyl)-1H-pyrrolo[2,3-c]pyridin-1-yl)benzamide]: 27 nM, 34 nM and 500 nM.
For `CC(C)N(C(=O)c1cc(F)ccc1-n1cc(C(=O)C2CCN(C(=O)[C@H]3N[C@H]4C[C@@H]3[C@@H](F)C4)CC2)c2ccncc21)C(C)C` [Example 22, 5-Fluoro-2-(3-(1-((1S,3S,4S,5S)-5-fluoro-2-azabicyclo[2.2.1]heptane-3-carbonyl)piperidine-4-carbonyl)-1H-pyrrolo[2,3-c]pyridin-1-yl)-N,N-diisopropylbenzamide] the same measures were 17 nM, 30 nM and 700 nM.
For `C[C@@H]1COC[C@@H](C)N1C(=O)c1cc(F)ccc1-n1cc(C(=O)C2CCN(C(=O)[C@H]3N[C@@H]4CC[C@H]3C4)CC2)c2ccncc21` [Example 34, (1-((1R,3S,4S)-2-Azabicyclo[2.2.1]heptane-3-carbonyl)piperidin-4-yl)(1-(2-((3R,5R)-3,5-dimethylmorpholine-4-carbonyl)-4-fluorophenyl)-1H-pyrrolo[2,3-c]pyridin-3-yl)methanone], the half-maximal inhibitory concentration (IC50) with MV4;11 cells (Homo sapiens, MV4-11, 168 h) came out at 39 nM; with MOLM-13 cells (Homo sapiens, MOLM-13, 168 h), 62 nM.
Regarding `O=C(c1cn(-c2ccc(F)cc2-c2cncnc2C2CC2)c2cnccc12)C1CCN(C(=O)[C@H]2N[C@@H]3CC[C@H]2C3)CC1` [Example 40, (1-((1R,3S,4S)-2-Azabicyclo[2.2.1]heptane-3-carbonyl)piperidin-4-yl)(1-(2-(4-cyclopropylpyrimidin-5-yl)-4-fluorophenyl)-1H-pyrrolo[2,3-c]pyridin-3-yl)methanone], the IC50 came to 37 nM with MV4;11 cells (Homo sapiens, MV4-11, 168 h) and 61 nM with MOLM-13 cells (Homo sapiens, MOLM-13, 168 h).
`CC(C)c1ccncc1-c1cc(F)ccc1-n1cc(C(=O)C2CCN(C(=O)[C@H]3N[C@@H]4CC[C@H]3C4)CC2)c2ccncc21` [Example 41, (1-((1R,3S,4S)-2-Azabicyclo[2.2.1]heptane-3-carbonyl)piperidin-4-yl)(1-(4-fluoro-2-(4-isopropylpyridin-3-yl)phenyl)-1H-pyrrolo[2,3-c]pyridin-3-yl)methanone] returned a Ki on muscarinic M2 receptor of 100 nM. The compound also gave an IC50 with MOLM-13 cells (Homo sapiens, MOLM-13, 168 h) of 42 nM.

A word on the IC50: it is the concentration that gives 50% inhibition. As a reminder, the Ki is the dissociation constant of the complex between target and ligand, obtained from inhibition or displacement.
